11 molecules from BindingDB's records for doi:10.1111/cbdd.12779 (Ferdowsi University of Mashhad, 2016) can be followed below.

Structures are written as SMILES. Where “and” joins values, the source holds several entries; their conditions need not be identical. Identical values can stand only once.

This assay concerns the target T1, Seed linoleate 13S-lipoxygenase-1 (Glycine max, UniProt P08170).
T1 sequence (P08170 whole entry): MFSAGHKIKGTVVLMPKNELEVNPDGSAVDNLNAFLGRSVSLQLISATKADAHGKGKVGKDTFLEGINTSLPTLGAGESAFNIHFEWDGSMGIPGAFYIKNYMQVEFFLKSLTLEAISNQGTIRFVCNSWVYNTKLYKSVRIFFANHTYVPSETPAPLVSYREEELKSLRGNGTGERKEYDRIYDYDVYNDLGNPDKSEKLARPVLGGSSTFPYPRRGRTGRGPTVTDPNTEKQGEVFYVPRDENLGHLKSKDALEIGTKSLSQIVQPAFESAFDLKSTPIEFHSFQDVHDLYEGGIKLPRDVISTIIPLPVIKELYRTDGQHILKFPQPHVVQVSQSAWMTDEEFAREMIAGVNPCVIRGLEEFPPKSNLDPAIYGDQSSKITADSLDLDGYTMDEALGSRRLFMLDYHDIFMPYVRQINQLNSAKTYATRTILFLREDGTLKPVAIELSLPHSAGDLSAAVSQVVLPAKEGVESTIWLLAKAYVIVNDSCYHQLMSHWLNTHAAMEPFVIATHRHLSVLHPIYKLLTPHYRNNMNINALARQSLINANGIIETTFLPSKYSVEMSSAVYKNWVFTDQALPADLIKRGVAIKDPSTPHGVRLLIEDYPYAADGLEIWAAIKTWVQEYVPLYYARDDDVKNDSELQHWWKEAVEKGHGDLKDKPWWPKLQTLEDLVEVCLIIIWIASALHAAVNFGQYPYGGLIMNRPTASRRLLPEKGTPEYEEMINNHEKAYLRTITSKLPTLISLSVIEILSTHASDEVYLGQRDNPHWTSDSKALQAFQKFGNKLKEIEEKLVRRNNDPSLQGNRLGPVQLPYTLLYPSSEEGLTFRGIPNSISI
Description: Lipo-oxygenase Inhibitory Assay. To be noted: pH 7; 25 °C. As to the method: Solution A was 50 mm DMAB in an 100 mm phosphate buffer (pH 7.0). Solution B was a mixture of 10 mm MBTH (3 mL) and hemoglobin (5 mg/mL, 3 mL) in 50 mm phosphatebuffer at pH 5.0 (25 mL). A linoleic acid solution was prepared by mixing 5 mg of linoleic acid with 50 mg Tween-20 in 3 mL water and then diluted with KOH 100 mmto a final volume of 5 mL. In the standard assay, the sample in ethanol (25 uL), SLO (EC 1,13,11,12; 4000 units/mL; 25 uL) and phosphate buffer, pH 7.0 (50 mm; 900 uL), were mixed in a test-tube and preincubation was carried out for 5 min at room temperature. A control test was done with the same volume of ethanol. Afterthe preincubation, linoleic acid solution (50 uL) was added to start the peroxidation reaction, and, 7 min later, solution A (270 uL) and then solution B (130 uL) were added to start the color formation. Further, 5 min later, 200 uL of a 2% SDS solution was added to terminate the reaction.
Regarding `C=CCc1cccc(OC)c1OC` [1,2-dimethoxy-3-(prop-2-en-1-yl)benzene (3)], the 50% inhibitory concentration (IC50) was 128 µM.

Regarding `COc1cc(C)cc(OC)c1CC=C(C)C` [1,3-Dimethoxy-5-methyl-2-(3-methylbut-2-en-1-yl)benzene (9)], the concentration for half-maximal inhibition (IC50) was determined as 7.6 µM.

For `COc1cc(C)cc(OC)c1C/C=C(\C)CC/C=C(\C)CCC=C(C)C` [1,3-Dimethoxy-5-methyl-2-((2E,6E)-3,7,11-trimethyldodeca-2,6,10-trien-1-yl)benzene (11)], the concentration for half-maximal inhibition (IC50) was 0.52 µM.

As for `C=CCc1ccc(OC)cc1OC` [1-Allyl-2,4-dimethoxybenzene (5)], the half-maximal inhibitory concentration (IC50) was 31.4 µM and 103 µM.

In turn, `C=CCc1cc(OC)cc(OC)c1` [1-Allyl-3,5-dimethoxybenzene (2)] showed an IC50 of 43.2 µM.

In the case of `C=CCc1c(OC)cc(OC)cc1OC` [2-Allyl-1,3,5-trimethoxybenzene (7)], the concentration for half-maximal inhibition (IC50) was determined as 83.2 µM.

`C=CCc1c(OC)cc(C)cc1OC` [2-Allyl-1,3-dimethoxy-5-methylbenzene (8)] displayed an IC50 of 30.5 µM.

Take `C=CCc1c(OC)cccc1OC` [2-Allyl-1,3-dimethoxybenzene (6)]: the midpoint of inhibition, the IC50, lay at 53.2 µM.

For `Cc1nc(N2CCN(C)CC2)nc2c1Nc1ccccc1S2` [4-MMPB], the IC50 amounted to 22.6 µM.

The molecule `COc1cc(C)cc(OC)c1C/C=C(\C)CCC=C(C)C` [(E)-2-(3,7-Dimethylocta-2,6-dien-1-yl)-1,3-dimethoxy-5-methylbenzene (10)] returned a half-maximal inhibitory concentration (IC50) of 5.3 µM.

In turn, `C=CCc1ccc(OC)c(OC)c1` [METHYLEUGENOL] gave an IC50 of 33.3 µM.
